GI50 and TGI data for 12 molecules are collected here from PubChem BioAssay (NCI).

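In this assay, cells in 96-well plates receive the compound at five concentrations for 48 hours. Endpoints are linearly interpolated between the surrounding concentrations. At the GI50, growth is halved. TGI denotes the concentration required for complete inhibition of growth.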

Test systems include A498 renal; CCRF-CEM leukemia; CAKI-1 renal; SW-620 colon; MDA-MB-231 breast; SF-268 CNS; SK-OV-3 ovarian; SK-MEL-5 melanoma; RXF 393 renal.
Holding throughout (test): DTP human tumour cell line panel, 48 h

As to `CN(C)CC[PH+](c1ccccc1)c1ccccc1.CN(C)CC[PH+](c1ccccc1)c1ccccc1.[Cl-].[Pd+2]`, the GI50 (usually the concentration that inhibits growth by half) with A498 renal was above 100 µM; in the assay with CCRF-CEM leukemia, 23.9 µM; with CAKI-1 renal it was above 100 µM; in the assay with SW-620 colon it was above 100 µM; with MDA-MB-231 breast, above 100 µM; with SF-268 CNS, above 100 µM. In addition, the GI50 in the assay with SK-OV-3 ovarian and in the assay with SK-MEL-5 melanoma was above 100 µM each time. The TGI in the assay on A498 renal, in the assay on CCRF-CEM leukemia, in the assay with CAKI-1 renal, in the assay with SW-620 colon, with MDA-MB-231 breast and in the assay with SF-268 CNS was above 100 µM throughout. For the same molecule, the TGI in the assay on SK-OV-3 ovarian and with SK-MEL-5 melanoma was above 100 µM throughout.
With `O=C(CC1(O)C(=O)N(Cc2ccccc2)c2ccc(F)cc21)c1ccc(C(=O)NCC2CCC3(CC2)OOC2(CCCCC2)OO3)cc1` (configuration not stated), the GI50 in the assay on A498 renal was 1.69 µM; with CCRF-CEM leukemia, 0.274 µM; in the assay on CAKI-1 renal, 0.464 µM; with SW-620 colon it was 1.84 µM; in the assay with RXF 393 renal it was 0.317 µM; with MDA-MB-231 breast, 0.423 µM. The GI50 in the assay on SF-268 CNS was 1.31 µM; in the assay on SK-OV-3 ovarian, 2.9 µM; in the assay on SK-MEL-5 melanoma, 1.54 µM. The TGI – broadly, the concentration giving total growth inhibition – in the assay with A498 renal worked out at 3.88 µM; with CCRF-CEM leukemia it was 0.924 µM; with CAKI-1 renal, 0.954 µM; with SW-620 colon it was 4.3 µM; with RXF 393 renal, 0.851 µM; in the assay with MDA-MB-231 breast, 1.68 µM. Besides, the concentration for total growth inhibition (TGI) was 3.22 µM in the assay with SF-268 CNS, above 24 µM in the assay with SK-OV-3 ovarian and 2.96 µM in the assay on SK-MEL-5 melanoma.
On to `COc1cc(F)ccc1-c1ncnc(Nc2cccc(CS(C)(=N)=O)c2)n1` (configuration not stated), for which the GI50 was 0.424 µM in the assay on A498 renal; 0.447 µM in the assay with CCRF-CEM leukemia; 1.92 µM in the assay on CAKI-1 renal; 0.673 µM in the assay on SW-620 colon; 0.239 µM in the assay on RXF 393 renal; 1.74 µM with MDA-MB-231 breast. In addition, the values for the GI50 in the assay with SF-268 CNS and in the assay with SK-OV-3 ovarian were 0.707 µM and 2.9 µM, respectively. Besides, the TGI in the assay on A498 renal is 1.66 µM; with CCRF-CEM leukemia it was above 100 µM; in the assay with CAKI-1 renal it was above 100 µM; in the assay on SW-620 colon, above 100 µM; with RXF 393 renal, 0.534 µM; with MDA-MB-231 breast, above 100 µM. The TGI with SF-268 CNS and with SK-OV-3 ovarian was above 100 µM each time.
Consider `COc1ccc2c(c1)C(=O)c1c-2c(N2CCN(C(=O)CNCCNCCO)CC2)nc2ccccc12`, for which the GI50 in the assay with A498 renal is 8.32 µM; with CCRF-CEM leukemia it was 1.98 µM; in the assay on CAKI-1 renal, 12.8 µM; with SW-620 colon it was 1.73 µM; with MDA-MB-231 breast it was 3.23 µM; with SF-268 CNS, 2.97 µM. Further, the values for the GI50 in the assay with SK-OV-3 ovarian and with SK-MEL-5 melanoma were 13.7 µM and 13.3 µM, respectively. Further, the TGI with A498 renal came to 20.2 µM; in the assay with CCRF-CEM leukemia, 5.22 µM; with CAKI-1 renal it was 35 µM; with SW-620 colon it was 3.28 µM; in the assay with MDA-MB-231 breast it was 12.7 µM; in the assay with SF-268 CNS it was 9.38 µM. Besides, the TGI in the assay on SK-OV-3 ovarian is 28.2 µM; in the assay with SK-MEL-5 melanoma, 27.5 µM.
Consider `Cc1ccc(/C=C/C(=O)c2sc(-c3nc(C)c(C(=O)/C=C/c4ccc(C)cc4)s3)nc2C)cc1`, for which the TGI in the assay with A498 renal, in the assay with CCRF-CEM leukemia, with CAKI-1 renal, with SW-620 colon, with RXF 393 renal and with SF-268 CNS was above 100 µM in each case. Further, the concentration for total growth inhibition (TGI) in the assay with SK-OV-3 ovarian and with SK-MEL-5 melanoma was above 100 µM in each case.
For `OCC1OC(c2nc(C3=NCCCN3)cs2)C(O)C1O` (configuration not stated), the TGI in the assay on A498 renal, in the assay with CCRF-CEM leukemia, with CAKI-1 renal, with SW-620 colon, in the assay with SF-268 CNS and with SK-OV-3 ovarian was above 100 µM in each case.
As to `CCOC(=O)C(=[N+]=[N-])[Si](C)(C)C`, the TGI in the assay with A498 renal is above 100 µM; in the assay on CAKI-1 renal it was above 100 µM; with SW-620 colon it was above 100 µM; with RXF 393 renal, above 100 µM; in the assay with SF-268 CNS it was 59.7 µM; with SK-MEL-5 melanoma, above 100 µM.
For `CC(=O)Oc1c2c(c(O)c3ccccc13)C(n1cnc3c(ncn3C3OC(CO)C4OC(C)(C)OC43)c1=N)CCC2` (configuration not stated), the concentration for total growth inhibition (TGI) with A498 renal stood at 33.3 µM; in the assay on CCRF-CEM leukemia it was 25.3 µM; in the assay with CAKI-1 renal, 50.1 µM; in the assay on SW-620 colon it was 29.6 µM; with RXF 393 renal, 32.3 µM; in the assay with SF-268 CNS it was 30.7 µM. Further, the figures for the concentration for total growth inhibition (TGI) in the assay on SK-OV-3 ovarian and in the assay with SK-MEL-5 melanoma were 33.1 µM and 24.5 µM, respectively.
Turning to `O=C(CCc1n[nH]c(=S)o1)Nc1ccccc1C(F)(F)F`, the concentration for total growth inhibition (TGI) was above 100 µM in the assay on A498 renal; above 100 µM in the assay on CCRF-CEM leukemia; above 100 µM with CAKI-1 renal; 49 µM in the assay with SW-620 colon; above 100 µM with SF-268 CNS; above 100 µM in the assay with SK-OV-3 ovarian. The TGI with SK-MEL-5 melanoma was above 100 µM.
Consider `O=C(Nc1nc(=S)c2c(ncn2CCOC(=O)c2ccccc2)[nH]1)c1ccccc1`, for which the total growth inhibition concentration (TGI) with A498 renal is above 100 µM; with CCRF-CEM leukemia it was above 100 µM; in the assay with CAKI-1 renal, above 100 µM; with SW-620 colon it was above 100 µM; in the assay with RXF 393 renal it was 59.2 µM; in the assay on SF-268 CNS it was 39.3 µM. Moreover, the TGI in the assay with SK-OV-3 ovarian and in the assay on SK-MEL-5 melanoma was above 100 µM each time.
In the case of `Cc1cc(N(CCC#N)CCC#N)ccc1N=Nc1ccc(C(=O)O)cc1`, the TGI in the assay with A498 renal, with CAKI-1 renal, with SW-620 colon, with RXF 393 renal, in the assay with SF-268 CNS and in the assay with SK-OV-3 ovarian was above 100 µM in each case. In the assay on SK-MEL-5 melanoma, the TGI is above 100 µM.
Take `[Cl][Hg][c]1cc[c]([Hg][Cl])o1`: the GI50 with A498 renal is 20 µM; with CCRF-CEM leukemia, 0.295 µM; in the assay with SW-620 colon, 1.32 µM; in the assay with RXF 393 renal, 1.41 µM; in the assay on MDA-MB-231 breast, 1.9 µM; with SF-268 CNS, 2.77 µM. Moreover, the GI50 was 15 µM in the assay on SK-OV-3 ovarian and 2.43 µM in the assay on SK-MEL-5 melanoma. For the same molecule, the TGI in the assay with A498 renal amounted to 34.2 µM; in the assay on CCRF-CEM leukemia it was 8.75 µM; in the assay on SW-620 colon it was 3.23 µM; with RXF 393 renal, 2.92 µM; in the assay on MDA-MB-231 breast it was 5.09 µM; in the assay on SF-268 CNS it was 12.3 µM. Further, the total growth inhibition concentration (TGI) with SK-OV-3 ovarian is 77.6 µM; in the assay with SK-MEL-5 melanoma, 9.6 µM.
